Results published in patent publication US9603922B2, “Modulation of NKT cell activity with antigen-loaded CD1d molecules” (VACCINEX, INC., priority 2007, dated 2017).

B1: αGalCer/sCD1d: soluble monomeric mouse β2m-CD1d, His-tagged, loaded with αGalCer (protein)
chain: IQKTPQIQVYSRHPPENGKPNILNCYVTQFHPPHIEIQMLKNGKKIPKVEMSDMSFSKDWSFYILAHTEFTPTETDTYACRVKHASMAEPKTVYWDRDMGGGGSGGSGSGGGSEAQQKNYTFRCLQMSSFANRSWSRTDSVVWLGDLQTHRWSNDSATISFTKPWSQGKLSNQQWEKLQHMFQVYRVSFTRDIQELVKMMSPKEDYPIEIQLSAGCEMYPGNASESFLHVAFQGKYVVRFWGTSWQTVPGAPSWLDLPIKVLNADQGTSATVQMLLNDTCPLFVRGLLEAGKSDLEKQEKPVAWLSSVPSSADGHRQLVCHVSGFYPKPVWVMWMRGDQEQQGTHRGDFLPNADETWYLQATLDVEAGEEAGLACRVKHSSLGGQDIILYWSSGSGGHHHHHH

What was measured:
B16-HER2 cells = assay: Precoating experiment, lung metastases of B16-HER2 cells; format: in vivo, mouse; conditions: cells pre-incubated with agent, injected i.v. into naïve mice
Description: Quantification of lung metastasis. Metastatic nodule surface area was measured on 2560×1920 pixels photographs of the whole organs, taken on an Zeiss STEMI SV11 dissection microscope (Carl Zeiss, Jena, Germany) equipped with a PROGRES-C10plus Color Camera (Jenoptik, Jena, Germany). Each image was analyzed with the ImageJ program (rsb.info.nih.gov/ij/) using a k-means clustering algorithm (plugin available on ij-plugins.sourceforge.net). Images were segmented into 9 segments cluster tolerance 1×10−4, randomization seed: 48) and the appropriate segments were selected based on the color of the metastasis reaching the surface of the organ. The area of the sum of selected color segments was expressed as percentage of the area occupied by the lungs. Both sides of the lung were analyzed. This method takes into account both the number and the size of the tumor nodules.

iNKT cells in PBMC = assay: iNKT frequency in peripheral blood during systemic treatment; format: in vivo, mouse; conditions: PBMC 3 days after third i.v. injection
Description: FIG. 3: iNKT expansion in blood during systemic treatment with αGalCer loaded recombinant CD1d molecules. Mice were bled after the third injection of either PBS (control) αGalCer (0.4 μg), αGalCer/CD1d-anti-Her2 fusion protein (Fusion, 40 μg), or αGalCer/sCD1d (sCD1d, 20 μg). NKT cells were stained in PBMCs using the CD1d-Tetramer-PE and anti CD3 FITC antibody. a representative dot blot of one mouse from each group. b graph representing several mice per group expressed as CD1d tetramer positive and CD3+ cells as percentage of total PBMC.
Increased frequency of iNKT cells during systemic treatment: normally iNKT cells are not detectable in mouse peripheral blood as shown on FIG. 3. In contrast, they became clearly detectable upon systemic treatment with recombinant αGalCer/CD1d molecules, whereas there was no change with αGalCer alone. FIG. 3a gives representative dot plots of FACS staining with CD1d-tetramer+anti-CD3 on PBMC 3 days after the third injection with either PBS, free αGalCer, αGalCer/CD1d-anti HER2, or αGalCer/sCD1d (five mice per group, i.v., injection every 3 days).

[1] = system: splenocytes, CD11c+ CD40+ DC; assay: Mature DC (CD11c+ CD40+) in splenocyte cultures of OVA-immunized mice; format: cell-based, mouse; conditions: same cultures, following restimulation
Description: FIG. 8: αGalCer loaded sCD1d acts as a strong adjuvant for the expansion of antigen-specific T cells upon active immunization. a kinetics of expansion of H-2K^b/OVA specific CTLs. Mice were primed with 200 μg ovalbumin either as such (i.v.) or with MONTANIDE™ adjuvant (3:7 ratio, s.c.) or with 1 μg αGalCer or 20 μg αGalCer/sCD1d (i.v.). Mice were bled every 5-7 days and PBMC were stained with H-2K^b/oVA tetramer+anti-CD8. Results were expressed as tetramer+ and CD8+ […] as a percentage of total CD8+ T cells. Mice were boosted with OVA peptide (20 μg) on day 22 employing the same adjuvants and route of injection as for primary immunization. b Ten days later, mice were sacrificed and splenocytes were cultured another five days either with no stimuli or with the same stimuli and adjuvants as for the in vivo boost. Frequency of OVA specific T cells was measured as in a. c The presence of mature DC in the same cultures as in b was analyzed by surface staining with anti CD11c and anti CD40 antibodies.
Together with active OVA immunization: An adjuvant effect has previously been attributed to free αGalCer and its potential use in vaccination has been proposed (Silk, J. D., et al. J Clin Invest 114:1800-1811 (2004)). […]

| Molecule | Lung metastases of precoated B16-HER2 cells (B16-HER2 cells) | Frequency of iNKT cells in peripheral blood (iNKT cells in PBMC) | Frequency of mature DC (CD11c+CD40+) [1] |
| --- | --- | --- | --- |
| CCCCCCCCCCCCCCCCCCCCCCCCCC(=O)N[C@@H](CO[C@H]1O[C@H](CO)[C@H](O)[C@H](O)[C@H]1O)[C@H](O)[C@H](O)CCCCCCCCCCCCCC [αGalCer, α-galactosylceramide, reference compound] | completely inhibited tumor development | no change | – |
| B1 | – | – | increased frequency of mature DC |
